Source: the supplement of paper PMC10307832

Experiments:
Test in all cases: relative viability (nuclei count vs DMSO), 5 days (fraction); higher = more cells survive
Palbociclib + Trametinib = compound: CC(=O)c1c(C)c2cnc(Nc3ccc(N4CCNCC4)cn3)nc2n(C2CCCC2)c1=O [Palbociclib] + CC(=O)Nc1cccc(-n2c(=O)n(C3CC3)c(=O)c3c(Nc4ccc(I)cc4F)n(C)c(=O)c(C)c32)c1 [Trametinib] (partner 0.02 µM)
Method in brief: (§1)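 Dosing by pin tool came one day after lung cancer cell lines were seeded in 1536-well plates, using either one drug or a fixed anchor-drug dose plus five library-drug doses (not always all listed) in √10 steps. After 5 days, nuclei were counted on 4× images. Relative viability is treated-well nuclei count divided by vehicle-well nuclei count, and values are medians of duplicate plates.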

Palbociclib + Foretinib = compound: CC(=O)c1c(C)c2cnc(Nc3ccc(N4CCNCC4)cn3)nc2n(C2CCCC2)c1=O [Palbociclib] + COc1cc2c(Oc3ccc(NC(=O)C4(C(=O)Nc5ccc(F)cc5)CC4)cc3F)ccnc2cc1OCCCN1CCOCC1 [Foretinib] (partner 0.25 µM)
Method in brief: as §1

Palbociclib + Navitoclax = compound: CC(=O)c1c(C)c2cnc(Nc3ccc(N4CCNCC4)cn3)nc2n(C2CCCC2)c1=O [Palbociclib] + CC1(C)CCC(c2ccc(Cl)cc2)=C(CN2CCN(c3ccc(C(=O)NS(=O)(=O)c4ccc(N[C@H](CCN5CCOCC5)CSc5ccccc5)c(S(=O)(=O)C(F)(F)F)c4)cc3)CC2)C1 [Navitoclax] (partner 0.5 µM)
Method in brief: as §1

Palbociclib + Tozasertib = compound: CC(=O)c1c(C)c2cnc(Nc3ccc(N4CCNCC4)cn3)nc2n(C2CCCC2)c1=O [Palbociclib] + Cc1cc(Nc2cc(N3CCN(C)CC3)nc(Sc3ccc(NC(=O)C4CC4)cc3)n2)n[nH]1 [Tozasertib] (partner 0.1 µM)
Method in brief: as §1

Cell Line	relative viability (Palbociclib + Trametinib; first compound 0.01 µM)	relative viability (Palbociclib + Trametinib; first compound 0.03162 µM)	relative viability (Palbociclib + Trametinib; first compound 0.1 µM)	relative viability (Palbociclib + Trametinib; first compound 0.3162 µM)	relative viability (Palbociclib + Trametinib; first compound 1 µM)	relative viability (Palbociclib + Foretinib; first compound 0.01 µM)	relative viability (Palbociclib + Foretinib; first compound 0.03162 µM)	relative viability (Palbociclib + Foretinib; first compound 0.1 µM)	relative viability (Palbociclib + Foretinib; first compound 0.3162 µM)	relative viability (Palbociclib + Foretinib; first compound 1 µM)	relative viability (Palbociclib + Navitoclax; first compound 0.01 µM)	relative viability (Palbociclib + Navitoclax; first compound 0.03162 µM)	relative viability (Palbociclib + Navitoclax; first compound 0.1 µM)	relative viability (Palbociclib + Navitoclax; first compound 0.3162 µM)	relative viability (Palbociclib + Navitoclax; first compound 1 µM)	relative viability (Palbociclib + Tozasertib; first compound 0.01 µM)	relative viability (Palbociclib + Tozasertib; first compound 0.03162 µM)	relative viability (Palbociclib + Tozasertib; first compound 0.1 µM)	relative viability (Palbociclib + Tozasertib; first compound 0.3162 µM)	relative viability (Palbociclib + Tozasertib; first compound 1 µM)
NCI-H322M	0.499	0.474	0.491	0.482	0.51	0.977	0.776	0.616	0.641	0.414	1.14	1.31	1.03	0.964	0.808	0.471	0.448	0.403	0.412	0.343
NCI-H441	0.483	0.409	0.23	0.228	0.155	0.75	0.965	0.571	0.701	0.373	–	0.593	0.336	0.484	0.572	0.689	0.739	0.577	0.446	0.373
NCI-H460	0.0946	0.116	0.0577	0.185	0.0348	1.01	0.969	0.886	0.8	0.536	1.08	0.944	0.912	0.662	0.175	0.33	0.0915	0.563	0.486	0.467
NCI-H520	0.84	0.574	0.561	0.541	0.245	0.837	0.563	0.522	0.551	0.373	1.08	0.719	0.745	0.785	0.481	0.445	0.424	0.238	0.329	0.249
NCI-H596	0.793	0.632	0.875	0.757	0.954	0.996	–	0.836	0.821	0.953	0.99	0.945	0.976	0.949	1.1	0.951	–	1	0.935	0.965
NCI-H647	0.502	0.305	0.428	0.346	0.272	1.21	1.17	1.13	1.07	0.964	1.33	0.92	0.759	0.93	0.738	0.272	0.286	0.266	0.465	0.435
NCI-H727	0.366	0.336	0.397	0.387	0.403	0.879	0.727	0.636	0.596	0.5	0.429	0.406	0.324	0.266	0.326	0.589	0.482	0.52	0.529	0.405
NCI-H838	0.643	0.477	0.396	0.376	0.175	1.03	0.955	0.71	0.823	0.515	1.16	1.03	0.859	0.938	0.423	0.272	0.248	0.213	0.194	0.204
